{
  "source": "patent US20080200512A1",
  "about": "“Hepatitis C virus polymerase inhibitors” (priority 2007, published 2008)",
  "origin": "cited, not measured here",
  "tested_on": "HCV",
  "settings": "monotherapy",
  "data": [
    {"smiles": "NC(=O)c1ncn([C@@H]2O[C@H](CO)[C@@H](O)[C@H]2O)n1", "note": "[ribavirin, 1-((2R,3R,4S,5R)-3,4-dihydroxy-5-hydroxymethyl-tetrahydro-furan-2-yl)-1H-[1,2,4]triazole-3-carboxylic acid amide]", "values": [
      {"measurement": "patients in whom serum amino transferase levels are reduced to normal", "result": 40, "unit": "%"}
    ]}
  ]
}
